Source: patent publication US20250122188A1, “MODULATORS OF THE INTEGRATED STRESS PATHWAY” (Calico Life Sciences LLC, priority 2016, published 2025)

Tested on: ATF4 luciferase reporter in HEK293T cells
Experiment: ATF4-Luc assay, HEK293T cells carrying the ATF4 luciferase reporter (in vitro model of VWMD)
Type: cell-based
Details: Homo sapiens, HEK-293T; HEK293T ATF4 luciferase reporter cells, 1 μg/mL tunicamycin, 7 hours; read-out: ATF4-Luc EC50
Procedure: In order to test exemplary compounds of the invention in a cellular context, a stable VWMD cell line was first constructed. The ATF4 reporter was prepared by fusing the human full-length ATF4 5′-UTR (NCBI Accession No. BC022088.2) in front of the firefly luciferase (FLuc) coding sequence lacking the initiator methionine as described in Sidrauski et al (eLife 2013). The construct was used to produce recombinant retroviruses using standard methods and the resulting viral supernatant was used to transduce HEK293T cells, which were then subsequently selected with puromycin to generate a stable cell line.
HEK293T cells carrying the ATF4 luciferase reporter were plated on polylysine coated 384-well plates (Greiner Bio-one) at 30,000 cells per well. Cells were treated the next day with 1 μg/mL tunicamycin and 200 nM of a compound of Formula (I) for 7 hours. Luminescence was measured using One Glo (Promega) as specified by the manufacturer. Cells were maintained in DMEM with L-glutamine supplemented with 10% heat-inactivated FBS (Gibco) and Antibiotic-Antimycotic solution (Gibco).

`O=C(COc1ccc(C(F)F)cc1)NC12CC(NC(=O)COc3ccc(C(F)F)cc3)(C1)C2` [Compound 389, N,N′-(bicyclo[1.1.1]pentane-1,3-diyl)bis{2-[4-(difluoromethyl)phenoxy]acetamide}] showed an EC50 of 250 to 500000 nM.
Work on `O=C(/C=C/c1ccc(OC(F)(F)F)cn1)NC12CC(NC(=O)COc3ccc(Cl)c(F)c3)(C1)C2` [Compound 376, (2E)-N-{3-[2-(4-chloro-3-fluorophenoxy)acetamido]bicyclo[1.1.1]pentan-1-yl}-3-[5-(trifluoromethoxy)pyridin-2-yl]prop-2-enamide] yielded an EC50 of 250 to 500000 nM.
`O=C(COc1ccc(Cl)c(F)c1)NC12CCC(NC(=O)COc3ccc(C(F)(F)F)nc3)(CC1)[C@H](O)C2` (single isomer, unassigned) [Compound 302] was tested, and the EC50 was under 10 nM.
For `O=C(/C=C/c1ccc(C(F)(F)F)nc1)NC12CC(NC(=O)COc3ccc(Cl)c(F)c3)(C1)C2` [Compound 351, (2E)-N-{3-[2-(4-chloro-3-fluorophenoxy)acetamido]bicyclo[1.1.1]pentan-1-yl}-3-[6-(trifluoromethyl)pyridin-3-yl]prop-2-enamide], the EC50 was 250 to 500000 nM.
`O=C(COc1ccc(Cl)c(F)c1)NC12CCC(NCCOc3ccc(Cl)c(Cl)c3)(CC1)CC2O` (stereo not drawn) [Compound 337, 2-(4-chloro-3-fluorophenoxy)-N-(4-{[2-(3,4-dichlorophenoxy)ethyl]amino}-2-hydroxybicyclo[2.2.2]octan-1-yl)acetamide] gave an EC50 of under 10 nM.
Work on `COc1cc(OC)nc(OCC(=O)NC23CCC(NC(=O)COc4ccc(Cl)c(F)c4)(CC2)C[C@@H]3O)n1` [Compound 498, 2-(4-chloro-3-fluorophenoxy)-N-[(3S)-4-{2-[(4,6-dimethoxypyrimidin-2-yl)oxy]acetamido}-3-hydroxybicyclo[2.2.2]octan-1-yl]acetamide] yielded an EC50 of 250 to 500000 nM.
`Cc1ccc(CCOCC(=O)NC23CC(NC(=O)COc4ccc(Cl)c(Cl)c4)(C2)C3)cc1` [Compound 154, 2-(3,4-dichlorophenoxy)-N-(3-{2-[2-(4-methylphenyl)ethoxy]acetamido}-bicyclo[1.1.1]pentan-1-yl)acetamide] was tested, and the EC50 was 250 to 500000 nM.
With `O=C(CCOCc1cccc(Cl)c1)NC12CC(NC(=O)COc3ccc(Cl)c(F)c3)(C1)C2` [Compound 163, N-{3-[2-(4-chloro-3-fluorophenoxy)acetamido]bicyclo[1.1.1]pentan-1-yl}-3-[(3-chlorophenyl)methoxy]propanamide] the EC50 was 250 to 500000 nM.
`O=C(COc1ccc(Cl)c(F)c1)NC12CC(NCC(=O)c3ccc(Cl)c(F)c3)(C1)C2` [Compound 291, 2-(4-chloro-3-fluorophenoxy)-N-(3-{[2-(4-chloro-3-fluorophenyl)-2-oxoethyl]amino}bicyclo[1.1.1]pentan-1-yl)acetamide] gave an EC50 of 250 to 500000 nM.
`O=C(COCc1ccc(OC(F)F)nc1)NC12CC(NC(=O)COc3ccc(Cl)c(F)c3)(C1)C2` [Compound 279, 2-(4-chloro-3-fluorophenoxy)-N-[3-(2-{[6-(difluoromethoxy)pyridin-3-yl]methoxy}acetamido)bicyclo[1.1.1]pentan-1-yl]acetamide] gave an EC50 of 250 to 500000 nM.
With `Cc1cc(Cl)ncc1OCC(=O)NC12CC(NC(=O)COc3ccc(Cl)c(F)c3)(C1)C2` [Compound 243, 2-(4-chloro-3-fluorophenoxy)-N-(3-{2-[(6-chloro-4-methylpyridin-3-yl)oxy]acetamido}bicyclo[1.1.1]pentan-1-yl)acetamide] the EC50 was 250 to 500000 nM.
In the case of `O=C(COc1ccc2c(c1)OC(F)(F)O2)NC12CCC(NC(=O)COc3ccc4c(c3)OC(F)(F)O4)(C1)C2` [Compound 391, N,N′-(bicyclo[2.1.1]hexane-1,4-diyl)bis{2-[(2,2-difluoro-2H-1,3-benzodioxol-5-yl)oxy]acetamide}], the EC50 is reported as 250 to 500000 nM.
`O=C(COc1ccc(Cl)c(F)c1)NC12CC(NC(=O)COc3ccnn3C3CC3)(C1)C2` [Compound 371, 2-(4-chloro-3-fluorophenoxy)-N-(3-{2-[(1-cyclopropyl-1H-pyrazol-5-yl)oxy]acetamido}bicyclo[1.1.1]pentan-1-yl)acetamide] was tested, and the EC50 was 250 to 500000 nM.
`Cc1nc(F)ccc1OCC(=O)NC12CC(NC(=O)COc3ccc(Cl)c(F)c3)(C1)C2` [Compound 249, 2-(4-chloro-3-fluorophenoxy)-N-(3-{2-[(6-fluoro-2-methylpyridin-3-yl)oxy]acetamido}bicyclo[1.1.1]pentan-1-yl)acetamide] was tested, and the EC50 was 250 to 500000 nM.
For `O=C(COc1ccc(Cl)c(F)c1)NC12CCC(NC(=O)COc3ccnc(C(F)(F)F)c3)(CC1)[C@@H](O)C2` (single isomer, unassigned) [Compound 318], the EC50 was 10 to 50 nM.
Work on `O=C(COc1ccc(Cl)c(F)c1)NC12CC(NC(=O)CC(=O)c3ccc(Cl)cc3)(C1)C2` [Compound 293, N-{3-[2-(4-chloro-3-fluorophenoxy)acetamido]bicyclo[1.1.1]pentan-1-yl}-3-(4-chlorophenyl)-3-oxopropanamide] yielded an EC50 of 250 to 500000 nM.
`N#Cc1cc(OCC(=O)NC23CC(NC(=O)COc4ccc(Cl)c(F)c4)(C2)C3)ccn1` [Compound 277, 2-(4-chloro-3-fluorophenoxy)-N-(3-{2-[(2-cyanopyridin-4-yl)oxy]acetamido}bicyclo[1.1.1]pentan-1-yl)acetamide] showed an EC50 of 250 to 500000 nM.
Work on `O=C(CCOc1cccc(Cl)c1)NC12CC(NC(=O)COc3ccc(Cl)c(Cl)c3)(C1)C2` [Compound 169, 3-(3-chlorophenoxy)-N-{3-[2-(3,4-dichlorophenoxy)acetamido]bicyclo-[1.1.1]pentan-1-yl}propanamide] yielded an EC50 of 250 to 500000 nM.
In the case of `Cc1cccc(CCOCC(=O)NC23CC(NC(=O)COc4ccc(Cl)c(F)c4)(C2)C3)c1` [Compound 136, 2-(4-chloro-3-fluorophenoxy)-N-(3-{2-[2-(3-methylphenyl)ethoxy]acetamido}-bicyclo[1.1.1]pentan-1-yl)acetamide], the EC50 is reported as 250 to 500000 nM.
`N#Cc1ccc(COCC(=O)NC23CC(NC(=O)COc4ccc(Cl)c(F)c4)(C2)C3)cc1` [Compound 139, 2-(4-chloro-3-fluorophenoxy)-N-(3-{2-[(4-cyanophenyl)methoxy]acetamido}-bicyclo[1.1.1]pentan-1-yl)acetamide] was tested, and the EC50 was 250 to 500000 nM.
For `O=C(COc1ccc(Cl)c(F)c1)NC12CCC(NC(=O)COc3ccc(F)cc3)(CC1)[C@@H](O)C2` [Compound 354, 2-(4-chloro-3-fluorophenoxy)-N-{(3S)-4-[2-(4-fluorophenoxy)acetamido]-3-hydroxybicyclo[2.2.2]octan-1-yl}acetamide], the EC50 was under 10 nM.
Work on `N#Cc1cccc(COCC(=O)NC23CC(NC(=O)COc4ccc(Cl)c(F)c4)(C2)C3)c1` [Compound 138, 2-(4-chloro-3-fluorophenoxy)-N-(3-{2-[(3-cyanophenyl)methoxy]acetamido}-bicyclo[1.1.1]pentan-1-yl)acetamide] yielded an EC50 of 250 to 500000 nM.
`O=C(COCCc1ccc(Cl)cc1)NC12CC(NC(=O)COc3ccc(Cl)c(F)c3)(C1)C2` [Compound 135, 2-(4-chloro-3-fluorophenoxy)-N-(3-{2-[2-(4-chlorophenyl)ethoxy]acetamido}-bicyclo[1.1.1]pentan-1-yl)acetamide] gave an EC50 of 250 to 500000 nM.
Compound `O=C(COc1ccc(Cl)c(F)c1)NC12CC(NC(=O)Cc3ccc(C(F)(F)F)nc3)(C1)C2` [Compound 342, 2-(4-chloro-3-fluorophenoxy)-N-(3-{2-[6-(trifluoromethyl)pyridin-3-yl]acetamido}bicyclo[1.1.1]pentan-1-yl)acetamide] has an EC50 of 250 to 500000 nM.
